Test [1] deals with WT K. pneumoniae Tim 19 (TEM-1 beta-lactamase). Type of test: cell-based, Klebsiella pneumoniae. The following applies: for Drug-Resistance Phenotype: WT K. pneumoniae Tim 19, TEM-1; for Resistance or sensitivity of clinical isolate: K. pneumoniae strain Tim 19 containing TEM-1 beta-lactamase.
Test [2] relates to K. pneumoniae Tim 19 CTX^R mutants. Kind of test: Multi-drug-resistance phenotype of CTX-selected mutants. The class given is cell-based, Klebsiella pneumoniae. Conditions: CTX^R mutants (8 analyzed), MNNG continuous culture, selected with CTX 2-550 μg/ml.
The next test concerns E. coli ATCC 11775. The class given is cell-based.
Test [3] has as its system E. coli 11775 NA^R mutants. As to the kind of experiment: Antimicrobial disk-diffusion test (antibiogram) of clones selected on nalidixic acid gradient plates. Type of test: cell-based. On the technique in general: A growth-free zone around the sample is the usual read-out of agar diffusion tests.

In the case of `C[C@H]1[C@H](NC(=O)/C(=N\OC(C)(C)C(=O)O)c2csc(N)n2)C(=O)N1S(=O)(=O)O` [ATM, aztreonum], the “Drug-Resistance Phenotype” value in test [1] is recorded as “CTX^S, CAZ^S, FOX^S, ATM^S”; in test [2], “CTX^R, CAZ^R, FOX^R, ATM^R”.
Turning to `CC(C)(O/N=C(\C(=O)N[C@@H]1C(=O)N2C(C(=O)[O-])=C(C[n+]3ccccc3)CS[C@H]12)c1csc(N)n1)C(=O)O` [CAZ, ceftazidime], in test [1], the “Resistance or sensitivity of clinical isolate” value (“Resistance or sensitivity” for short) is on record as “sensitive” and the “Drug-Resistance Phenotype” value is “CTX^S, CAZ^S, FOX^S, ATM^S”. Moreover, the “Drug-Resistance Phenotype” value in test [2] is recorded as “CTX^R, CAZ^R, FOX^R, ATM^R”.
For `CO/N=C(\C(=O)N[C@@H]1C(=O)N2C(C(=O)O)=C(COC(C)=O)CS[C@H]12)c1csc(N)n1` [CTX, cefotaxime], in test [1], the “Resistance or sensitivity” value is reported as “sensitive” and the “Drug-Resistance Phenotype” value is “CTX^S, CAZ^S, FOX^S, ATM^S”. Also, in test [2], the “Drug-Resistance Phenotype” value is “CTX^R, CAZ^R, FOX^R, ATM^R”.
Take `CCOS(C)(=O)=O` [EMS, Ethyl Methanesulfonate]: in the test with E. coli ATCC 11775, the “Mutant Frequencies (NA^R phenotype)” value is recorded as 1.2 × 10^−7 and the “Survival (%)” value was 64%.
Turning to `CO[C@@]1(NC(=O)Cc2cccs2)C(=O)N2C(C(=O)O)=C(COC(N)=O)CS[C@@H]21` [FOX, cefoxitin], in test [1], the “Resistance or sensitivity” value is “sensitive” and the “Drug-Resistance Phenotype” value is on record as “CTX^S, CAZ^S, FOX^S, ATM^S”. For the same compound, the “Drug-Resistance Phenotype” value in test [2] is listed as “CTX^R, CAZ^R, FOX^R, ATM^R”.
For `CCn1cc(C(=O)O)c(=O)c2ccc(C)nc21` [NA, nalidixic acid], the “Phenotype (nalidixic acid resistance)” value is “Partially NA^R” in test [3] (mutant D2C2-a, EMS continuous culture, 82 generations, Gly-81→Cys); “Partially NA^R” in test [3] (mutant D2C2-h, EMS continuous culture, 62 generations, Gly-81→Cys); “Partially NA^R” in test [3] (mutant D2C2-l, EMS continuous culture, 62 generations, Gly-82 (GAC)→Asn); “Completely NA^R” in test [3] (mutant D3NX-E5, EMS continuous culture, 135 generations, Ser-83→Leu); “Completely NA^R” in test [3] (mutant D3NX-E6, EMS continuous culture, 135 generations, Ser-83→Leu); “Completely NA^R” in test [3] (mutant D7NX-E1, EMS continuous culture, 403 generations, Ser-83→Leu). In addition, the “Phenotype (nalidixic acid resistance)” value is “Completely NA^R” in test [3] (mutant D7NX-E2, EMS continuous culture, 403 generations, Ser-83→Leu); “Partially NA^R” in test [3] (mutant NX-E09, EMS, batch culture, gyrA Asp-87→Ile); “Completely NA^R” in test [3] (mutant NX-E10, EMS, batch culture, gyrA Ser-83→Leu); “Partially NA^R” in test [3] (mutant NX-M3, MNNG, batch culture, gyrA Asp-87→Gly); “Partially NA^R” in test [3] (mutant NX-M5, MNNG, batch culture, gyrA Asp-87→Asn); “Partially NA^R” in test [3] (mutant NX-M6, MNNG, batch culture, gyrA Asp-87→Gly). Moreover, the “Phenotype (nalidixic acid resistance)” value in test [3] (mutant NX-N6, NQO, batch culture, gyrA Ser-83→Leu) is listed as “Completely NA^R”.
Consider `O=[N+]([O-])c1cc[n+]([O-])c2ccccc12` [NQO, 4Nitroquinoline-lxide], for which, in the test with E. coli ATCC 11775, the “Mutant Frequencies (NA^R phenotype)” value is given as 0.6 × 10^−8 and the “Survival (%)” value worked out at 77%.
With `CC1(C)S[C@@H]2[C@H](NC(=O)[C@H](N)c3ccccc3)C(=O)N2[C@H]1C(=O)O` [ampicillin], the “Resistance or sensitivity” value in test [1] is “resistance”.

Source of the values: US6875582B1 (priority 1999, dated 2005).
